# Reference: the supplement of paper PMC11208160
# Assay: recombinant barcode read abundance after kanamycin selection (control-corrected) (log10(CPM+1)); higher = more efficient recombination; sequences stand for … in AGTGCAGAGAAAATCGGCCAGTTTTCTCTGCCTGCAGTCCGCATGCCGT…AGATTTATGCAGCGGACTGCCTTTCTCCCAAAGTGATAAACCGGACAGTATCATGGACCGGTTTTCCCGGTAATCCGTATTTGCAAGGTTGGTTTCACT; site = the 11-nt target
# Procedure, shortened: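 A vector carrying a T7-inducible recombinase and the last 73 bp of the bridge RNA received, by Gibson cloning, oligos encoding a promoter, target, barcode and the first 104 bridge RNA bases under J23119. The pooled constructs entered E. coli together with a donor plasmid by electroporation. Selection used chloramphenicol/ampicillin/kanamycin with 0.1 mM IPTG, with chloramphenicol/ampicillin LB agar as the control, each in two replicates. Recombination efficiency is the averaged, control-corrected counts-per-million of barcodes at recombinant junctions, reported as log10(CPM+1).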
# 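Note: IS621 recombinase and bridge RNA in Escherichia coli cells.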
row,Sequence,recombinant barcode read abundance (log10)
1,GATAGGGCTTGGGTTCTAACCTGTTGCGG (site GATAGGGCTCC),2.34
2,GATAGGGCTTGGGTTCTAACCTGTTGCGG (site TATAGGGCTCG),0.362
3,GATAGTGCTTGGGTTCTAACCTGTTGCCT (site GATAGTACTAG),0.0881
4,GATAGTGCTTGGGTTCTAACCTGTTGCCT (site GATAGTCCTAG),0.0622
5,GATAGTGCTTGGGTTCTAACCTGTTGCCT (site GATAGTGCTAG),0.536
6,GATAGTGCTTGGGTTCTAACCTGTTGCCT (site GATAGTTCTAG),0.0158
7,GATCAATCTTGGGTTCTAACCTGTTGCCT (site GAGCAAACTAG),0.0249
8,GATCAATCTTGGGTTCTAACCTGTTGCCT (site GATCAATCTAG),0.332
9,GATCGAGCTTGGGTTCTAACCTGTTGCGA (site GATCGAGCTTC),0.921
10,GATCGAGCTTGGGTTCTAACCTGTTGCGA (site GATGGAGCTCC),0.428
11,GATGGCCCTTGGGTTCTAACCTGTTGCTT (site GACGGACCTAA),0.101
12,GATGGCCCTTGGGTTCTAACCTGTTGCTT (site GATGGCCCTAA),0.528
13,GATGTAACTTGGGTTCTAACCTGTTGCCT (site GAAGTAACTAG),0.191
14,GATGTAACTTGGGTTCTAACCTGTTGCCT (site GACGTAACTAG),0.101
15,GATGTAACTTGGGTTCTAACCTGTTGCCT (site GAGGTAACTAG),0.0797
16,GATGTAACTTGGGTTCTAACCTGTTGCCT (site GATGTAACTAG),0.956
17,GATTCTACTTGGGTTCTAACCTGTTGCGT (site CATGCTACTAC),0.0209
18,GATTCTACTTGGGTTCTAACCTGTTGCGT (site GATTCTACTAC),0.0518

row,Sequence,recombinant barcode read abundance (log10)
1,GATTCTCCTTGGGTTCTAACCTGTTGCGT (site GATTCTCCTAA),0.0946
2,GATTCTCCTTGGGTTCTAACCTGTTGCGT (site GATTCTCCTAC),0.541
3,GATTCTCCTTGGGTTCTAACCTGTTGCGT (site GATTCTCCTAG),0.141
4,GATTCTCCTTGGGTTCTAACCTGTTGCGT (site GATTCTCCTAT),0.118
5,GATTCTCCTTGGGTTCTAACCTGTTGCTT (site GATTCTCCTAA),0.0943
6,GATTCTCCTTGGGTTCTAACCTGTTGCTT (site GATTCTCCTAC),0.0499
7,GATTCTCCTTGGGTTCTAACCTGTTGCTT (site GATTCTCCTAG),0.0621
8,GATTCTCCTTGGGTTCTAACCTGTTGCTT (site GATTCTCCTAT),0.194
9,GCAAATCCTTGGGTTCTAACCTGTTGCCT (site GCAAATCCTAG),0.873
10,GCAAATCCTTGGGTTCTAACCTGTTGCCT (site GCACATCCTAC),0.108
11,GCAACCTCTTGGGTTCTAACCTGTTGCTA (site CGCTGACCTAG),0.049
12,GCAACCTCTTGGGTTCTAACCTGTTGCTA (site GCAACCTCTTA),1.92
13,GCAAGTACTTGGGTTCTAACCTGTTGCAG (site AGGTTAGCTTA),0.106
14,GCAAGTACTTGGGTTCTAACCTGTTGCAG (site GCAAGTACTCT),1.95
15,GCACAGACTTGGGTTCTAACCTGTTGCCT (site GCAAAGCCTAG),0.207
16,GCACAGACTTGGGTTCTAACCTGTTGCCT (site GCACAGACTAG),2.09
17,GCACAGTCTTGGGTTCTAACCTGTTGCTT (site CCATAGTCTAA),0.0514
18,GCACAGTCTTGGGTTCTAACCTGTTGCTT (site GCACAGTCTAA),1.93
